Results on one molecule are retold here after US10022308B2, “Wipe and methods for improving skin health” (Kimberly-Clark Worldwide, Inc., priority 2003, dated 2018).

For assay [1], the system named is Lactobacillus acidophilus (ATCC #:314). As to the kind of experiment: Adhesion assay for Lactobacillus acidophilus on synthetic skin substrate. Type of assay: cell-based. The settings on record: 50 μl of 10% botanical stock in TSB + 50 μl bacteria, 3 h at 33° C. or 37° C., VITRO-SKIN, AlamarBlue. The method, then: The protocols for testing the ability of botanical compounds to elicit any of these desired effects are set forth in the Examples. In general, the ability of a botanical compound to affect the adherence of an organism to skin is determined by comparing the adherence of the organism to skin in the presence of the botanical compound, to the adherence of the organism to skin in the absence of the botanical compound. If the amount of adherence in the presence of the botanical compound is 150% or greater than the amount of adherence in the absence of the botanical compound, then the botanical compound is an adherence promoter for that organism. […]
(§1) Results are given in Table 1, which gives the percent adherence to the skin of P. mirabilis, S. epidermidis, P. aeruginosa, L. acidophilus, and C. albicans for the various botanical compound samples, relative to the control. The percentage is based on the number of cells that adhered to the skin for the botanical samples as compared to the number of cells that adhered to the skin in the control, as determined by the AlamarBlue® levels. […]
The next day, the optical density (650 nm) of the Lactobacilli broth culture was read. […] AlamarBlue® levels were read (emission levels read at 590 nm) in an Ascent plate reader (excitation level of 544 nm) at 2 and 3 hours. […]
Background: The colour change of resazurin is a common sign of viable cells or microbes.

The test system of assay [2] is C. albicans (ATCC #10231). As to the kind of experiment: Adhesion assay for Candida albicans on synthetic skin substrate. Type of assay: cell-based. The settings on record: 50 μl of 10% botanical stock in TSB + 50 μl yeast, 3 h at 33° C., VITRO-SKIN, AlamarBlue. Here is the method:
(§2) The protocols for testing the ability of botanical compounds to elicit any of these desired effects are set forth in the Examples. In general, the ability of a botanical compound to affect the adherence of an organism to skin is determined by comparing the adherence of the organism to skin in the presence of the botanical compound, to the adherence of the organism to skin in the absence of the botanical compound. If the amount of adherence in the presence of the botanical compound is 150% or greater than the amount of adherence in the absence of the botanical compound, then the botanical compound is an adherence promoter for that organism. If the amount of adherence in the presence of the botanical compound is 50% or less than the amount of adherence in the absence of the botanical compound, then the botanical compound is an anti-adherent for that organism.
as §1
The next day, the optical density (650 nm) of the SDB culture was read. […]

Assay [3] deals with P. mirabilis (ATCC #29906). As to the kind of experiment: Adhesion assay for P. mirabilis on synthetic skin substrate. Type of assay: cell-based, Proteus mirabilis. The following applies: 50 μl of 10% botanical stock in TSB + 50 μl bacteria, 3 h room temperature, VITRO-SKIN, AlamarBlue; >100% more cells adhered than control. The method, then: as §2
(§3) Each of the botanical compounds listed in Table 1 was screened to measure the effect of the compound on the adhesion of P. mirabilis, S. epidermidis, or P. aeruginosa to the skin. […]
(§4) The next day, the optical density (650 nm) of the TSB culture was read. […] AlamarBlue® levels were read (emission levels read at 590 nm) in an Ascent plate reader (excitation level of 544 nm) at 1 and 2 hours. When not being read, the plate was incubated at 37° C. with a lid. […]

For assay [4], the system named is P. aeruginosa (ATCC #27853). As to the kind of experiment: Adhesion assay for P. aeruginosa on synthetic skin substrate. In kind it is cell-based, Pseudomonas aeruginosa. The settings on record: 50 μl of 10% botanical stock in TSB + 50 μl bacteria, 3 h room temperature, VITRO-SKIN, AlamarBlue. Here is the method:
as §2, §3, §4

In assay [5] the test system is S. epidermidis (ATCC #12228). Put plainly: Adhesion assay for S. epidermidis on synthetic skin substrate. Type of assay: cell-based, Staphylococcus epidermidis. The settings on record: 50 μl of 10% botanical stock in TSB + 50 μl bacteria, 3 h room temperature, VITRO-SKIN, AlamarBlue. Here is the method: as §2, §3, §4

Molecules are shown by their SMILES.

In the case of `CCCC(O)CO` (centres unmarked) [Hydrolite-5], the “percent adherence to the skin of L. acidophilus (LA) relative to the control” value in assay [1] is 169.66%. The “percent adherence to the skin of C. albicans (CA) relative to the control” value in assay [2] amounted to 3.9%. In addition, in assay [3], the “percent adherence to the skin of P. mirabilis (PM) relative to the control” value is 9.2%. Besides, the “percent adherence to the skin of P. aeruginosa (PA) relative to the control” value in assay [4] was 5.1%. Also, the “percent adherence to the skin of S. epidermidis (SE) relative to the control” value in assay [5] was 141.5%.
